Data set [1] in a line: Log D, 1-octanol/buffer shake flask. The data set is classed as physicochemical. The note with it: pH 7.4. The method in brief:
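Compound from a 10 mM DMSO stock was partitioned between mutually saturated 1-octanol and 0.1 M phosphate buffer by shaking for 1 h at room temperature, then centrifuged. Each phase was diluted and quantified by LC/MS/MS. Log D came from the ratio of dilution- and internal-standard-corrected peak areas.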

Another data set has as its target T1, hTRPV1 (Homo sapiens, UniProt Q8NER1).
T1 construct: CDS of NM_080704.4, inserted into the multiple cloning site of pcDNA3.1(+); host or cells: CHO/hKv7.2/3
In words: TRPV1 HCS, Fluo-8 calcium flux, capsaicin activation, CHO cells expressing hTRPV1. The class given is cell-based. In a few lines:
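CHO cells stably expressing hTRPV1 were seeded 24 h ahead, then exposed to compound in HBSS/HEPES (0.2% DMSO) with Fluo-8 dye for 1.5 h at room temperature before capsaicin was injected. Fluorescence was background-subtracted and normalized to the ionomycin maximum. IC50 came from sigmoidal fits constrained to a 0 minimum and a maximum of about 1.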
For orientation: Calcium assays in cells follow changes in intracellular calcium, usually with a dye or a luminescent sensor.

In a further data set the target is hERG (Homo sapiens, UniProt Q12809). In words: hERG HCS, FLIPR potassium assay, CHO/hERG. The data set is classed as cell-based. Details: host or cells: CHO. The note with it: for hERG IC50 (inhibition in parentheses): at highest concentration shown. How it is done: Cell culture: Chinese hamster ovary (CHO) cell-line cells with a constitutive expression of human hERG channels (B'SYS GmbH, Switzerland) were cultured in F-12 nutrient mixture (Biological Industries) supplemented with 10% fetal bovine serum (Biological Industries) and 1% penicillin-streptomycin (Biological Industries) in a humidified 5% CO2 incubator at 37° C. To maintain the hERG expression stability of the CHO cell line, antibiotics selection (G418 […] and Hygromycin 500) was applied.
FLIPR Potassium Assay Kit: The FLIPR Potassium Assay Kit (R8222 FLIPR Potassium Assay Explorer Kits, Molecular Devices) was used with CHO/hERG cell line, for screening compounds against the hERG ion-channel off-target, as detailed hereinabove.
According to optimization process, to achieve a uniform and consistent screening condition of molecules, the following protocol was established: Cells were seeded in 384-well, black-walled, clear-bottomed, at a density of 7,500 cells per well 24 hours before the assay conductance and incubated overnight in their normal growth medium. On the experiment day the medium was replaced with HBSS, HEPES, and the tested compound/vehicle (0.2% DMSO). Dye solution (prepared according to the manufacturer) was added to the wells and plates were incubated for 1.5 hour light-protected in room temperature. The Tecan Spark plate-reader injectors were primed with Tl+(1 mM Tl2SO4) or Tl++K+(1 mM Tl2SO4; 10 mM K2SO4) for channel activation and data correction. […]. To calculate IC50 values, the data was fitted to sigmoidal regression using Prism GraphPad.
(In general: The hERG channel carries a current that helps repolarise heart muscle cells.)

A short description of a further data set: Kinetic solubility. The data set is classed as physicochemical. The note with it: for solubility kinetic: hhbs buffer, aqueous buffer. How it is done: Solubility measurements were performed prior to each in vitro assay to ensure accurate dose response and reproducibility. Briefly, each compound was dissolved to 60 mM in DMSO and calibration curve was performed from 1.5-200 μM using absorbance spectra analysis and determination of λmax. Calibration curve served as the readout for all following assays. The 60 mM stock solution was used to make a 120 μM target concentration of 0.2% DMSO in the appropriate buffer of the in vitro related assay (i.e. HHBS buffer). Solubilized compounds were vortex for 10 minutes followed by centrifugation for 15 minutes in 5000 RPM and the supernatant was recovered for absorbance spectra analysis between 200-400 nm.

Where [2] appears, read: 1-octanol/phosphate buffer, read-out: LogD.
Setting [3] is: cells expressing TRPV1, read-out: TRPV1 IC50.
Where [4] appears, read: Table 1, read-out: Kinetic Sol.
The mark [5] stands for this setting: Tables 4 and 11, read-out: Kinetic Sol.

The record followed here is patent US20260327211A1, “MODULATORS OF A POTASSIUM CHANNEL AND OF TRPV1 CHANNEL AND USES THEREOF” (Bsense Bio Therapeutics Ltd., priority 2023, published 2026).

SMILES strings stand for the structures. In brackets after ≈: the same amount, converted by molar mass. Like-named read-outs stand apart in the source and are kept apart here.

T1 sequence (Q8NER1 whole entry): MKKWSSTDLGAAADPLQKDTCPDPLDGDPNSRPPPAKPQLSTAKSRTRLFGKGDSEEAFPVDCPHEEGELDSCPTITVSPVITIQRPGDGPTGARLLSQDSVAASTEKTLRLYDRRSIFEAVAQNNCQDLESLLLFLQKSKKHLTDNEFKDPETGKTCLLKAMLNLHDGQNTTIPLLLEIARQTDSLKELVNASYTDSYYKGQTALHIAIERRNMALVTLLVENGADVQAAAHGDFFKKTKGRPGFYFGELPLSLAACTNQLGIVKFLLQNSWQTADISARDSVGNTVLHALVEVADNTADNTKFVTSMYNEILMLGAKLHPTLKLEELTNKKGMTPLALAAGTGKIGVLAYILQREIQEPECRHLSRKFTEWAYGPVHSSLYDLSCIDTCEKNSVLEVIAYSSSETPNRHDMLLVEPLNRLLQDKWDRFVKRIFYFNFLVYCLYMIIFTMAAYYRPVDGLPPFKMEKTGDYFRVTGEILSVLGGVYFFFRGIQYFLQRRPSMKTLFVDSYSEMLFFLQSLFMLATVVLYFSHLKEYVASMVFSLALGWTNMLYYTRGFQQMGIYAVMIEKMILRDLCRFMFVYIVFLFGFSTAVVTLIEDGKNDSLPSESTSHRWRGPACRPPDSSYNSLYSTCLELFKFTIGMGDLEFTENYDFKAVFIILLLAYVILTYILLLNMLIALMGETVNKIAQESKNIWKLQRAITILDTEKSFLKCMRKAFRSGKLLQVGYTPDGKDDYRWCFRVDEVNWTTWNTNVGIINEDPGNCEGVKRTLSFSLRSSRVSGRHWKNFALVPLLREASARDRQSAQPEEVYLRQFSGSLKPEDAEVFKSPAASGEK
Sequence of hERG (Q12809 whole entry): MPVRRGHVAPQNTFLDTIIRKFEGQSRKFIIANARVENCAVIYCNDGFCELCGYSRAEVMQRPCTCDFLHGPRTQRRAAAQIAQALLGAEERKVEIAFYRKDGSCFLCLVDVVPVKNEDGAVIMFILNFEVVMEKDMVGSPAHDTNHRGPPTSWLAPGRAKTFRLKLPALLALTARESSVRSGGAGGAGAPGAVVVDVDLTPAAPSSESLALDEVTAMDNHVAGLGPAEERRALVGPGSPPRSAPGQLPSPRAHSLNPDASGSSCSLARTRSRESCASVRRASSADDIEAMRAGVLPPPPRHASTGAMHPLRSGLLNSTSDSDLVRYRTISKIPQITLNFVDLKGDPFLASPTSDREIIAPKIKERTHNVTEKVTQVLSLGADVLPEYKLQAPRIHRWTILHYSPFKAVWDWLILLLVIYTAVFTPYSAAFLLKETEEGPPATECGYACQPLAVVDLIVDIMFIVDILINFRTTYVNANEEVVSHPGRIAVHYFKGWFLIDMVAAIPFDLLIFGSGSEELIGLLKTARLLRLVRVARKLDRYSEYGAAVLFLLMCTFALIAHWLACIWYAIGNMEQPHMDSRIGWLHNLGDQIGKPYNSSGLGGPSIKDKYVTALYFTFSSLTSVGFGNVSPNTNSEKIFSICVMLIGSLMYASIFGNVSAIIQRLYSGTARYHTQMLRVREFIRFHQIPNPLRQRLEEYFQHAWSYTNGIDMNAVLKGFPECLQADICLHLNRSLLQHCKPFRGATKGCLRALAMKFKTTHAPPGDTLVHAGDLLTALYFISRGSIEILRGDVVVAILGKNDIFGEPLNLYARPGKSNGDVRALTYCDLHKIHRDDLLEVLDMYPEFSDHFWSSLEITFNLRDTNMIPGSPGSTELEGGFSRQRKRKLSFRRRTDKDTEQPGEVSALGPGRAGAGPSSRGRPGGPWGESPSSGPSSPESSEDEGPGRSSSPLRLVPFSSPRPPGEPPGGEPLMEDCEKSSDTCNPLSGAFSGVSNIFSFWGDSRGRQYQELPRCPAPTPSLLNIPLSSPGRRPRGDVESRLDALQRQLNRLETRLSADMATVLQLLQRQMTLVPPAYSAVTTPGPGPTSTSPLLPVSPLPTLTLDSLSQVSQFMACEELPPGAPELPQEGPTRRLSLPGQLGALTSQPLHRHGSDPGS

As usually defined, the logD is the decadic logarithm of the distribution of all forms, ionised or not, between an organic phase and buffer at a given pH. Regarding `O=C(Cc1ccnc(-n2cc(Cl)c3cc(Cl)cc(Cl)c32)n1)N[C@@H]1COC[C@H]1O` [Compound 820], in data set [1] (setting [2]), the logD came to 3.82.
For `CC(C)c1cc(Cl)cc(Cl)c1C(=O)c1ccc(F)c(CC(=O)NCC(C)(C)O)c1` [Compound 417-4], the IC50 at hTRPV1 (setting [3]) is 8 µM; at hERG (Table 1, read-out: hERG IC50) it was above 35 µM. Further, at hERG (Table 1), the “hERG IC50 (inhibition in parentheses)” value was found to be 0%. For the same compound, the logD in data set [1] (setting [2]) came to 4.08. The solubility kinetic in the data set “Kinetic solubility” (setting [4]) was 66 µM (≈ 29.1 µg/mL).
For `O=C(Cc1cncc(-n2cc(Cl)c3cc(Cl)cc(Cl)c32)c1)N[C@@H]1COC[C@H]1O` [Compound 661], the IC50 on hTRPV1 was 19 µM; at hTRPV1 (setting [3]), 19.3 µM; at hTRPV1 (read-out: CAP hTRPV1 IC50 HCS), 19.1 µM; on hERG (Table 1, read-out: hERG IC50) it was above 16.6 µM; against hERG (hERG IC50 HCS) it was 18.7 µM. In addition, the “hERG activity” value at hERG is “no measurable activity at any concentration tested”. Also, on hERG (Table 1), the “hERG IC50 (inhibition in parentheses)” value worked out at 0%. For the same compound, the logD in data set [1] (setting [2]) worked out at 3.55. The solubility kinetic in “Kinetic solubility” (setting [4]) came out at 40 µM (≈ 17.6 µg/mL); in the data set “Kinetic solubility” (setting [5]) it was 37000 µM (≈ 16300 µg/mL).
Turning to `COC[C@@H](CO)NC(=O)Cc1cc(Sc2c(Cl)cc(F)cc2C(C)C)ccc1F` [Compound 415], the IC50 was 7.8 µM on hTRPV1; 7.7 µM on hTRPV1 (setting [3]); above 23 µM at hERG (Table 1, read-out: hERG IC50). Also, on hERG (Table 1), the “hERG IC50 (inhibition in parentheses)” value is 0%. Further, in data set [1] (setting [2]), the logD was 4.25. The solubility kinetic in the data set “Kinetic solubility” (setting [4]) amounted to 26.7 µM (≈ 11.9 µg/mL).
Consider `O=C(Cc1cc(-n2cc(Cl)c3cc(Cl)cc(Cl)c32)ccc1F)NCCO` [Compound 627], for which the IC50 is 1.9 µM at hTRPV1 (setting [3]); 1.9 µM on hTRPV1 (read-out: CAP hTRPV1 IC50 HCS); above 2.5 µM at hERG (Table 1, read-out: hERG IC50); above 2.65 µM against hERG (hERG IC50 HCS). Besides, the “hERG IC50 (inhibition in parentheses)” value on hERG (Table 1) turned out to be 0%.
Turning to `Cc1cn(-c2ccc(F)c(CC(=O)NCC(C)(C)O)c2)c2c(Cl)cc(Cl)cc12` [Compound 421], the IC50 is 1.8 µM on hTRPV1 and above 2.5 µM at hERG (hERG IC50 HCS). Besides, the logD in data set [1] (setting [2]) worked out at 5.45. Also, the solubility kinetic in the data set “Kinetic solubility” (setting [5]) is 3400 µM (≈ 1440 µg/mL).
Regarding `O=C(Cc1nccc(-n2cc(Cl)c3cc(Cl)cc(Cl)c32)n1)NC1COCC1O` (stereo not shown) [Compound 760], the “hERG activity” value at hERG is “lacks any effect on hERG and Kv7.3/4/5 activity below 10 μM”. The IC50 on hERG (human, cho/herg cells, Thallium ions (Tl+) fluorescence, read-out: hERG EC50) came to 33.4 µM. For the same compound, in data set [1] (setting [2]), the logD stood at 3.28. The solubility kinetic turned out to be 57000 µM (≈ 25200 µg/mL) in “Kinetic solubility” (setting [5]) and 57 µM (≈ 25.2 µg/mL) in the data set “Kinetic solubility” (read-out: Kinetic solubility).
As to `O=C(Cc1cc(-n2cc(C(F)(F)F)c3cc(Cl)cc(Cl)c32)ncn1)NCCO` [Compound 843], the logD in data set [1] (setting [2]) stood at 3.75.
Take `CC(C)c1cc(Cl)cc(Cl)c1Nc1ccc(F)c(CC(=O)NCC(C)(C)O)c1` [NH91, reference compound]: the IC50 on hTRPV1 is 8 µM. Besides, the logD in data set [1] (setting [2]) was determined as 4.66. Moreover, the solubility kinetic in the data set “Kinetic solubility” (Kinetic Sol., Tables 4 and 11) turned out to be 20 µM (≈ 8.55 µg/mL); in the data set “Kinetic solubility” (read-out: Kinetic solubility), 20 µM (≈ 8.55 µg/mL).
For `Cc1cn(-c2ccc(F)c(CC(=O)NCC(C)(C)O)c2)c2c(Cl)cc(Cl)cc12` [Compound 421-6], the IC50 at hTRPV1 (setting [3]) was 2.1 µM; at hERG (Table 1, read-out: hERG IC50) it was above 2.5 µM. In addition, the “hERG IC50 (inhibition in parentheses)” value on hERG (Table 1) is given as 0%. In data set [1], this compound came in with a logD of 5.47. Further, the “Kinetic Sol.” value in the data set “Kinetic solubility” (Table 1) was found to be 3.4.
